Biological target: T1, CRF1 receptors (Homo sapiens, UniProt P34998)
T1 construct: endogenous in cells; host or cells: IMR-32 cells, transformed with 2.5 µM 5'-bromo-2'-deoxyuridine for 10 days; membrane preparation
T1 sequence (P34998 24-415): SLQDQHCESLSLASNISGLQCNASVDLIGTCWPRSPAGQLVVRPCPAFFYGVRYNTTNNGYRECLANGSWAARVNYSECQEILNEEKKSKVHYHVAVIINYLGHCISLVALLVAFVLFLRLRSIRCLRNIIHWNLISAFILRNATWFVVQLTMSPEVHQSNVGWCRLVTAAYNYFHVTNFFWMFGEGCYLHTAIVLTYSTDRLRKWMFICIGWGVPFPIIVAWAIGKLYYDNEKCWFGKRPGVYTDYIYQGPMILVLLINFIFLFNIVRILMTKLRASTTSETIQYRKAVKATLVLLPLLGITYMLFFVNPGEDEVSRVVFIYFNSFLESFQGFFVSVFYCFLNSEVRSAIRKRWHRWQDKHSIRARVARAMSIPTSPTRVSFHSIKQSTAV
Assay: CRF1 receptor radioligand binding assay ([125I]-oCRF competition, IMR-32 cell membranes)
Details: IMR-32 cell membranes, [125I]-oCRF 100 pM; read-out: Ki (CRF-1R)
Method: CRF1 receptor antagonists, by occupying the same receptors, blocks the accessibility of the receptors to CRF, a hypothalamic factor mediating body's responses to physiological and psychological stress. The following radioligand binding assay examines the ability of the antagonists to bind the CRF1 receptors by assessing their ability to compete with binding of CRF to the receptors in cell membrane.
Tissue culture and membrane preparation. IMR-32 cells were grown at 37° C. in 5% CO2 as a monolayer in medium consisting of MEM supplemented with 10% heat-inactivated fetal bovine serum, 0.1 mM nonessential amino acids, 1 mM sodium pyruvate and 2 mM L-glutamine. […] After transformation, cells were rinsed twice with phosphate-buffered saline, and incubated for 10–15 min. at 4° C. in homogenization buffer consisting of 50 mM Tris (pH 7.2), 10 mM MgCl2 and 2 mM EGTA. Cells were transferred from plates to polypropylene tubes (16×100 mm), homogenized and centrifuged at 32,000×g for 15 min. Pellets were resuspended by homogenization in buffer and centrifuged at 32,000×g for 15 min. Pellets were resuspended in homogenization buffer then stored at −80° C. until needed.
Radioligand binding assays. […] The assay buffer consisted of 50 mM Tris (pH 7.2), 10 mM MgCl2, 0.5% BSA, 0.005% Triton X-100, 10 μg/mL aprotinin and 10 μg/mL leupeptin. Assays were stopped by addition of ice-cold wash buffer (50 mM Tris, pH 7.4 and 0.2% BSA). Filtration over glass fiber filters (Whatman GF/B) previously soaked in 50 mM Tris, pH 7.2 and 1% BSA was carried out using a Brandel cell harvester. Filters were washed with 10 mL of ice-cold wash buffer. Non-specific binding was defined with 10 μM oCRF. IC50 values for oCRF and test compounds were calculated by nonlinear regression using a one-site binding curve (GraphPad Prism).

Row | SMILES | Ki [µM]
1 | CCc1nc2n(c1C(=O)N(CCC(F)(F)F)CC1CC1)CCN2c1c(C)cc(C)cc1Cl [Example 29, 7-(2-Chloro-4,6-dimethyl-phenyl)-2-ethyl-6,7-dihydro-5H-imidazo[1,2 a]imidazole-3-carboxylic acid cyclopropylmethyl-(3,3,3-trifluoro-propyl)-amide] | < 1
2 | CCc1nc2n(c1C(=O)N(CC1CC1)CC(F)(F)F)CCN2c1c(C)cc(Cl)cc1Cl [Example 30, 7-(2,4-Dichloro-6-methyl-phenyl)-2-ethyl-6,7-dihydro-5H-imidazo[1,2-a]imidazole-3-carboxylic acid cyclopropylmethyl-(2,2,2-trifluoro-ethyl)-amide] | < 0.1
3 | CCCN(CC1CC1)C(=O)c1c(CC)nc2n1CCN2c1c(C)cc(Cl)cc1Cl [Example 31, 7-(2,4-Dichloro-6-methyl-phenyl)-2-ethyl-6,7-dihydro-5H-imidazo[1,2-a]imidazole-3-carboxylic acid cyclopropylmethyl-propyl-amide] | < 0.1
4 | CCc1nc2n(c1C(=O)N(CC1CC1)CC(F)(F)C(F)(F)F)CCN2c1c(C)cc(Cl)cc1Cl [Example 32, 7-(2,4-Dichloro-6-methyl-phenyl)-2-ethyl-6,7-dihydro-5H-imidazo[1,2-a]imidazole-3-carboxylic acid cyclopropylmethyl-(2,2,3,3,3-pentafluoro-propyl)-amide] | < 0.1
5 | CCCN(CC(F)(F)F)C(=O)c1c(CC)nc2n1CCN2c1c(C)cc(Cl)cc1Cl [Example 33, 7-(2,4-Dichloro-6-methyl-phenyl)-2-ethyl-6,7-dihydro-5H-imidazo[1,2-a]imidazole-3-carboxylic acid propyl-(2,2,2-trifluoro-ethyl)-amide] | < 0.1
6 | CCc1nc2n(c1C(=O)N(CC1CC1)CC(F)(F)F)CCN2c1ccc(C(C)C)cc1Br [Example 34, 7-(2-Bromo-4-isopropyl-phenyl)-2-ethyl-6,7-dihydro-5H-imidazo[1,2-a]imidazole-3-carboxylic acid cyclopropylmethyl-(2,2,2-trifluoro-ethyl)-amide] | < 1
7 | CCCN(CC1CC1)C(=O)c1c(CC)nc2n1CCN2c1ccc(C(C)C)cc1Br [Example 35, 7-(2-Bromo-4-isopropyl-phenyl)-2-ethyl-6,7-dihydro-5H-imidazo[1,2-a]imidazole-3-carboxylic acid cyclopropylmethyl-propyl-amide] | < 10
8 | CCCN(CC(F)(F)F)C(=O)c1c(CC)nc2n1CCN2c1ccc(C(C)C)cc1Br [Example 36, 7-(2-Bromo-4-isopropyl-phenyl)-2-ethyl-6,7-dihydro-5H-imidazo[1,2-a]imidazole-3-carboxylic acid propyl-(2,2,2-trifluoro-ethyl)-amide] | < 1
9 | CCc1nc2n(c1C(=O)N(CC1CC1)CC(F)(F)C(F)(F)F)CCN2c1ccc(C(C)C)cc1Br [Example 37, 7-(2-Bromo-4-isopropyl-phenyl)-2-ethyl-6,7-dihydro-5H-imidazo[1,2-a]imidazole-3-carboxylic acid cyclopropylmethyl-(2,2,3,3,3-pentafluoro-propyl)-amide] | < 1
10 | CCCN(CC1CCC1)C(=O)c1c(CC)nc2n1CCN2c1ccc(C(C)C)cc1Br [Example 38, 7-(2-Bromo-4-isopropyl-phenyl)-2-ethyl-6,7-dihydro-5H-imidazo[1,2-a]imidazole-3-carboxylic acid cyclobutylmethyl-propyl-amide] | < 10
11 | CCc1nc2n(c1C(=O)N(CCC(F)(F)F)CC1CC1)CCN2c1ccc(C(C)C)cc1Br [Example 39, 7-(2-Bromo-4-isopropyl-phenyl)-2-ethyl-6,7-dihydro-5H-imidazo[1,2-a]imidazole-3-carboxylic acid cyclopropylmethyl-(3,3,3-trifluoro-propyl)-amide] | < 10
12 | CCc1nc2n(c1C(=O)N(CC)CC1CC1)CCN2c1ccc(C(C)C)cc1Br [Example 40, 7-(2-Bromo-4-isopropyl-phenyl)-2-ethyl-6,7-dihydro-5H-imidazo[1,2-a]imidazole-3-carboxylic acid cyclopropylmethyl-ethyl-amide] | < 10
13 | CCCN(CCc1ccccc1)C(=O)c1c(CC)nc2n1CCN2c1c(C)cc(C)cc1Br [Example 41, 7-(2-Bromo-4,6-dimethyl-phenyl)-2-ethyl-6,7-dihydro-5H-imidazo[1,2-a]imidazole-3-carboxylic acid phenethyl-propyl-amide] | < 1
14 | CCCN(CC1CCC1)C(=O)c1c(CC)nc2n1CCN2c1c(C)cc(C)cc1Br [Example 42, 7-(2-Bromo-4,6-dimethyl-phenyl)-2-ethyl-6,7-dihydro-5H imidazo[1,2-a]imidazole-3-carboxylic acid cyclobutylmethyl-propyl-amide] | < 1
15 | CCc1nc2n(c1C(=O)N(CC)CC1CCC1)CCN2c1c(C)cc(C)cc1Br [Example 43, 7-(2-Bromo-4,6-dimethyl-phenyl)-2-ethyl-6,7-dihydro-5H-imidazo[1,2-a]imidazole-3-carboxylic acid cyclobutylmethyl-ethyl-amide] | < 1
16 | CCc1nc2n(c1C(=O)N(CC1CC1)CC(F)(F)F)CCN2c1c(C)cc(C)cc1Br [Example 44, 7-(2-Bromo-4,6-dimethyl-phenyl)-2-ethyl-6,7-dihydro-5H-imidazo[1,2-a]imidazole-3-carboxylic acid cyclopropylmethyl-(2,2,2-trifluoro-ethyl)-amide] | < 0.1
17 | CCCN(CCC(F)(F)F)C(=O)c1c(CC)nc2n1CCN2c1c(C)cc(C)cc1Br [Example 45, 7-(2-Bromo-4,6-dimethyl-phenyl)-2-ethyl-6,7-dihydro-5H-imidazo[1,2-a]imidazole-3-carboxylic acid propyl-(3,3,3-trifluoro-propyl)-amide] | < 1
18 | CCCN(CC1CC1)C(=O)c1c(CC)nc2n1CCN2c1c(C)cc(C)cc1Br [Example 46, 7-(2-Bromo-4,6-dimethyl-phenyl)-2-ethyl-6,7-dihydro-5H-imidazo[1,2-a]imidazole-3-carboxylic acid cyclopropylmethyl-propyl-amide] | < 10
19 | CCCC(O)(CCC)c1c(CC)nc2n1CCN2c1c(C)cc(C)cc1C [Example 47, 4-[2-Ethyl-7-(2,4,6-trimethyl-phenyl)-6,7-dihydro-5H-imidazo[1,2-a]imidazol-3-yl]-heptan-4-ol] | < 1
20 | CCC=C(CCC)c1c(CC)nc2n1CCN2c1c(C)cc(C)cc1C [Example 48, 6-Ethyl-5-(1-propyl-but-1-enyl)-1-(2,4,6-trimethyl-phenyl)-2,3-dihydro-1H-imidazo[1,2-a]imidazole] | < 0.1
21 | CCCC(CCC)c1c(CC)nc2n1CCN2c1c(C)cc(C)cc1C [Example 49, 6-Ethyl-5-(1-propyl-butyl)-1-(2,4,6-trimethyl-phenyl)-2,3-dihydro-1H-imidazo[1,2-a]imidazole] | < 1
22 | CCC=C(CCC)c1c(CC)nc2n1CCN2c1c(C)cc(C)cc1Cl [Example 50, 1-(2-Chloro-4,6-dimethyl-phenyl)-6-ethyl-5-(1-propyl-but-1-enyl)-2,3-dihydro-1H-imidazo[1,2-a]imidazole] | < 0.1
23 | CCCN(CC1CC1)C(=O)c1c(CC)nc2n1CCCN2c1c(C)cc(C)cc1C [Example 54, 2-Ethyl-8-(2,4,6-trimethyl-phenyl)-5,6,7,8-tetrahydro-imidazo[1,2-a]pyrimidine-3-carboxylic acid cyclopropylmethyl-propyl-amide] | < 10
24 | CCCN(CC1CC1)C(=O)c1c(C(F)(F)F)nc2n1CCCN2c1c(C)cc(C)cc1C [Example 55, 2-Trifluoromethyl-8-(2,4,6-trimethyl-phenyl)-5,6,7,8-tetrahydro-imidazo[1,2a]pyrimidine-3-carboxylic acid cyclopropylmethyl-propyl-amide] | < 10
25 | CCCN(CCc1ccccc1)C(=O)c1c(C)nc2n1CCCN2c1c(C)cc(C)cc1C [Example 56, 2-Methyl-8-(2,4,6-trimethyl-phenyl)-5,6,7,8-tetrahydro-imidazo[1,2-a]pyrimidine-3-carboxylic acid phenethyl-propyl-amide] | < 10
26 | CCCN(CC1CCC1)C(=O)c1c(C)nc2n1CCCN2c1c(C)cc(C)cc1C [Example 57, 2-Methyl-8-(2,4,6-trimethyl-phenyl)-5,6,7,8-tetrahydro-imidazo[1,2-a]pyrimidine-3-carboxylic acid cyclobutylmethyl-propyl-amide] | < 10

Reference: patent US7125990B2, “Imidazolyl derivatives as corticotropin releasing factor inhibitors” (Bristol-Myers Squibb COmpany, priority 2001, dated 2006)
